Data: patent US20150099012A1, “METHODS FOR ACTIVATING RETROVIRUS IN LATENT INFECTED CELLS, AND COMPOUNDS FOR USE THEREIN” (Erasmus University Medical Center Rotterdam, priority 2012, published 2015)

How the values were obtained:
latent HIV LTR = experiment: Activation of latent HIV LTR in J-Lat/S-Lat latently infected cell lines (GFP reporter, FACS); type: cell-based, HIV-1; conditions: for de-repression / activation of latent HIV LTR: single agents, J-Lat/S-Lat or 1G5 cells, FIG. 5
Procedure: A) S-Lat 46, J-Lat P32, J-Lat A2, J-Lat 11.1, S-Lat 24, S-Lat 9 and […], and GFP expression was monitored by FACS analysis to determine activation of the latent LTR. B) J-Lat P32 and (C) S-Lat 30 Jurkats and SupT1 cell lines harbouring latently infected HIV were either untreated or treated with 2, 5 or 10 mM LiCl as indicated. Expression of HIV-LTR driven P24 and GFP, and endogenous Wnt target genes AXIN2, MMP9, TCF1, as well as control GAPDH and NFkB target genes TLR2 and ICAM1 was monitored by qRT-PCR 72 hours after treatment. Expression data are presented as fold induction normalized to Cyclophillin A control.
(§1) Expression data are presented as fold induction normalized to Cyclophillin A control.

[1] = tested on: HIV LTR nucleosomes (DHS1, nuc-1); experiment: PCR-based MNase mapping of latent HIV LTR nucleosome structure; type: cell-based
Excerpt: The high resolution dynamic nucleosomal structure of latently integrated HIV LTR is mapped in presence or absence of Wnt stimulation.
It is an aspect of this invention that this synergistic effect on LTR nucleosome structure extends to other LTR de-repressors.

latently infected PBMCs = experiment: Primary PBMC latency model, HIV expression after treatment; type: cell-based; conditions: PBMCs infected with LTR-Tat-IRES-GFP virus, sorted five days after infection
Excerpt: PBMCs were infected with VSV-G pseudotyped LTR-Tat-IRES-GFP virus particles and examined establishment of a latent phenotype, as in the cell line latency models (J-Lat/S-Lat). Briefly, PBMCs were Ficoll-purified from buffycoats of healthy donors, activated with phytohemagglutinin (PHA-L) and Interleukin-2 (IL-2), followed by virus infection. Five days after infection, GFP negative cells were sorted by FACS, placed in culture. […] Thus, even in the context of a fully activated T cell, integration of HIV at select sites will lead to the suppression of HIV transcription.

[2] = tested on: NFkB target genes TLR2 and ICAM1; experiment: qRT-PCR of NFkB target genes in latent HIV-infected Jurkat/SupT1 cell lines; type: cell-based
Procedure: as §1
(§2) Latent HIV-infected S-Lat 30 (A) and J-LatP32 (B) were treated with Wnt3A or control conditioned media. Relative mRNA expression levels of endogenous Wnt target genes AXIN2, ZCCHC12, TCF1, MMP9, the HIV P24 Gag and the LTR-reporter GFP, control (GAPDH) and NFkB target genes were quantitated by qRT-PCR. Expression data are presented as fold induction normalized to Cyclophillin A control.
A) S-Lat 46, J-Lat P32, J-Lat A2, J-Lat 11.1, S-Lat 24, S-Lat 9 and S-Lat 30 latently infected Jurkat and SupT1 cell lines were treated with Lithium Chloride (10 mM) for 2 hours, and GFP expression was monitored by FACS analysis to determine activation of the latent LTR. B) J-Lat P32 and (C) S-Lat 30 Jurkats and SupT1 cell lines harbouring latently infected HIV were either untreated or treated with 2, 5 or 10 mM LiCl as indicated. Expression of HIV-LTR driven P24 and GFP, and endogenous Wnt target genes AXIN2, MMP9, TCF1, as well as control GAPDH and NFkB target genes TLR2 and ICAM1 was monitored by qRT-PCR 72 hours after treatment. Expression data are presented as fold induction normalized to Cyclophillin A control.
In addition, latent HIV-infected S-Lat 30 (A) and J-LatP32 (B) were treated with Wnt3A or control conditioned media. Relative mRNA expression levels of endogenous Wnt target genes AXIN2, ZCCHC12, TCF1, MMP9, the HIV P24 Gag and the LTR-reporter GFP, control (GAPDH) and NFkB target genes were quantitated by qRT-PCR. Expression data are presented as fold induction normalized to Cyclophillin A control.

[3] = tested on: Wnt target genes AXIN2, TCF7(TCF1), MMP9, ZCCHC12, MMP2; experiment: qRT-PCR of endogenous Wnt target genes in latent HIV-infected Jurkat/SupT1 cell lines; type: cell-based
Procedure: as §1, §2
A) S-Lat 46, J-Lat P32, J-Lat A2, J-Lat 11.1, S-Lat 24, S-Lat 9 and S-Lat 30 latently infected Jurkat and SupT1 cell lines were treated with Lithium Chloride (10 mM) for 2 hours, and GFP expression was monitored by FACS analysis to determine activation of the latent LTR. […] Expression of HIV-LTR driven P24 and GFP, and endogenous Wnt target genes AXIN2, MMP9, TCF1, as well as control GAPDH and NFkB target genes TLR2 and ICAM1 was monitored by qRT-PCR 72 hours after treatment. […]
In addition, latent HIV-infected S-Lat 30 (A) and J-LatP32 (B) were treated with Wnt3A or control conditioned media. Relative mRNA expression levels of endogenous Wnt target genes AXIN2, ZCCHC12, TCF1, MMP9, the HIV P24 Gag and the LTR-reporter GFP, control (GAPDH) and NFkB target genes were quantitated by qRT-PCR. […]

[4] = tested on: latent HIV (P24 Gag, LTR-reporter GFP); experiment: qRT-PCR of HIV P24 Gag and LTR-reporter GFP mRNA in latent HIV-infected cell lines; type: cell-based
Excerpt: (§3) A) Exogenous expression of S33Y β-catenin in S-Lat30 latent HIV infected cell line results in activation of TCF/LEF-driven TOPFLASH luciferase activity. […] S33Y β-catenin expression also results in a concomitant activation of latent HIV in S-Lat30 HIV infected cell line as quantitated by increased mRNA expression of HIV P24 Gag and the LTR-reporter GFP. Expression data are presented as fold induction normalized to Cyclophillin A control.
as §2
In addition, latent HIV-infected S-Lat 30 (A) and J-LatP32 (B) were treated with Wnt3A or control conditioned media. Relative mRNA expression levels of endogenous Wnt target genes AXIN2, ZCCHC12, TCF1, MMP9, the HIV P24 Gag and the LTR-reporter GFP, control (GAPDH) and NFkB target genes were quantitated by qRT-PCR. Expression data are presented as fold induction normalized to Cyclophillin A control. […]

TCF/LEF-driven TOPFLASH = TCF/LEF-driven TOPFLASH luciferase reporter in S-Lat30; type: cell-based; conditions: exogenous expression (nucleofection) in S-Lat30; FIG. 6A
Excerpt: as §3
For example, activation of the Wnt signaling pathway may be measured/quantitated by an increase In TCF-driven transcription in the cell after introduction of TOPFLASH (plasmid with tandem TCF/LEF consensus sites driving expression of the luciferase gene) into the cell via transfection/nucleofection. Increase in TOPFLASH (TCF-driven) and not FOPFLASH (TCF-mutant reporter) indicates activation of the Wnt signaling pathway.
S33Y β-catenin constitutively active mutant: Transfection (by nucleofection) of latent HIV infected cell lines with an expression vector for a constitutively active form of β-catenin, the molecular effector of the Wnt signaling pathway results in activation of latent HIV.

[5] = Wnt3A conditioned media, S-Lat 30 and J-LatP32, FIG. 7
[6] = exogenous expression in S-Lat30, FIG. 6B

Molecule: Cc1c[nH]c(-c2cnc(NCCNc3ccc(C#N)cn3)nc2-c2ccc(Cl)cc2Cl)n1 [CHIR-99021, 6-(2-(4-(2,4-Dichlorophenyl)-5-(4-methyl-1H-imidazol-2-yl)-pyrimidin-2-ylamino)ethyl-amino)-nicotinonitrile]
- activation of the latent LTR (GFP expression by FACS) (latent HIV LTR; 1 μM, 24 hours, J-Lat P44, S-Lat 24, J-Lat P21, J-Lat 11.1, S-Lat 9, S-Lat 30, FIG. 8): activation of the HIV LTR

Molecule: CCCCCCCCCCCCCC(=O)O[C@@H]1[C@@H](C)[C@@]2(O)[C@@H](C=C(CO)C[C@]3(O)C(=O)C(C)=C[C@@H]23)[C@@H]2C(C)(C)[C@]12OC(C)=O [PMA]
- loosely positioned nucleosomes over DHS1 (MNase mapping) ([1]; PMA stimulation): disappear
- HIV expression in GFP negative sorted infected PBMCs (latently infected PBMCs): activated HIV expression

Molecule: CC(=O)O[C@@]12C[C@@H](C)[C@@]3(O)[C@@H](C=C(CO)C[C@]4(O)C(=O)C(C)=C[C@@H]34)[C@@H]1C2(C)C [Prostratin]
- mRNA expression of NFkB target genes TLR2, ICAM1 (RT-PCR) ([2]; Lithium 1 mM-10 mM, Prostratin as positive control, FIG. 9): activation of the NFkB target genes TLR2 and ICAM

Molecule: CCCC(CCC)C(=O)O [VPA, valproic acid]
- de-repression / activation of latent HIV LTR (latent HIV LTR): marginal activation
- remodelling of nuc-1 (MNase mapping) ([1]; co-treatment of VPA with Wnt stimulation): dramatic remodelling of the repressive nuc-1

Molecule: TNFa
- HIV expression in GFP negative sorted infected PBMCs (latently infected PBMCs): activated HIV expression

Molecule: Wnt3A
- de-repression / activation of latent HIV LTR (latent HIV LTR): de-repression of latent HIV LTR
- activation of endogenous Wnt target genes (qRT-PCR) [3, 5]: activates latent HIV and endogenous Wnt target genes
- activation of NFkB target genes (qRT-PCR) [2, 5]: not NFkB target genes
- activation of latent HIV (P24 Gag and LTR-reporter GFP mRNA, qRT-PCR) [4, 5]: activates latent HIV

B1: R-spondin: LGR ligand, 27 kDa protein, used as R-spondin1-conditioned medium from HEK293T (protein, UniProt Q2MKA7 21-263, looked up)
R-spondin-1: SRGIKGKRQRRISAEGSQACAKGCELCSEVNGCLKCSPKLFILLERNDIRQVGVCLPSCPPGYFDARNPDMNKCIKCKIEHCEACFSHNFCTKCKEGLYLHKGRCYPACPEGSSAANGTMECSSPAQCEMSEWSPWGPCSKKQQLCGFRRGSEERTRRVLHAPVGDHAACSDTKETRRCTVRRVPCPEGQKRRKGGQGRRENANRNLARKESKEAGAGSRRRKGQQQQQQQGTVGPLTSAGPA
modifications: conditioned medium
notes: LGR ligand, 27 kDa protein, used as R-spondin1-conditioned medium from HEK293T
- de-repression / activation of latent HIV LTR (latent HIV LTR): de-repression of latent HIV LTR

B2: S33Y β-catenin: constitutively active β-catenin mutant, expressed from a nucleofected expression vector (protein, UniProt P35222 2-781, looked up, variant S33Y)
Catenin beta-1: ATQADLMELDMAMEPDRKAAVSHWQQQSYLDYGIHSGATTTAPSLSGKGNPEEEDVDTSQVLYEWEQGFSQSFTQEQVADIDGQYAMTRAQRVRAAMFPETLDEGMQIPSTQFDAAHPTNVQRLAEPSQMLKHAVVNLINYQDDAELATRAIPELTKLLNDEDQVVVNKAAVMVHQLSKKEASRHAIMRSPQMVSAIVRTMQNTNDVETARCTAGTLHNLSHHREGLLAIFKSGGIPALVKMLGSPVDSVLFYAITTLHNLLLHQEGAKMAVRLAGGLQKMVALLNKTNVKFLAITTDCLQILAYGNQESKLIILASGGPQALVNIMRTYTYEKLLWTTSRVLKVLSVCSSNKPAIVEAGGMQALGLHLTDPSQRLVQNCLWTLRNLSDAATKQEGMEGLLGTLVQLLGSDDINVVTCAAGILSNLTCNNYKNKMMVCQVGGIEALVRTVLRAGDREDITEPAICALRHLTSRHQEAEMAQNAVRLHYGLPVVVKLLHPPSHWPLIKATVGLIRNLALCPANHAPLREQGAIPRLVQLLVRAHQDTQRRTSMGGTQQQFVEGVRMEEIVEGCTGALHILARDVHNRIVIRGLNTIPLFVQLLYSPIENIQRVAAGVLCELAQDKEAAEAIEAEGATAPLTELLHSRNEGVATYAAAVLFRMSEDKPQDYKKRLSVELTSSLFRTEPMAWNETADLGLDIGAQGEPLGYRQDDPSYRSFHSGGYGQDALGMDPMMEHEMGGHHPGADYPVDGLPDLGHAQDLMDGLPPGDSNQLAWFDTDL
- mRNA expression of endogenous Wnt target genes AXIN2, MMP2, TCF1, ZCCHC12, MMP9 [3, 6]: increased mRNA expression of the endogenous Wnt target genes
- mRNA expression of control gene GAPDH and NFkb target genes TLR2 and ICAM1 [2, 6]: not control gene GAPDH, or the NFkb target genes TLR2 and ICAM1
- mRNA expression of HIV P24 Gag and LTR-reporter GFP [4, 6]: increased mRNA expression of HIV P24 Gag as well as the LTR-reporter GFP
- TCF-driven TOPFLASH luciferase activity (TCF/LEF-driven TOPFLASH): activation of TCF-driven TOPFLASH luciferase activity
